ChEMBL document CHEMBL5550184, “Structure-activity relationships of middle-size cyclic peptides, KRAS inhibitors derived from an mRNA display” (Bioorg Med Chem, 2024)
Positions of bridges follow the written chain, without caps; N, C: chain ends. Non-standard residues stand in square brackets, D forms with d. Residues, ends and D or L forms follow the SMILES beside them. *: point of attachment. hPhe(3-Cl-4-CF3) = N[C@@H](CCc1ccc(C(F)(F)F)c(Cl)c1)C(=O)O; NMeGly(cPent) = CN[C@H](C(=O)O)C1CCCC1; NMeCha = CN[C@@H](CC1CCCCC1)C(=O)O; NMeD = CN[C@@H](CC(=O)O)C(=O)O; NMeL = CN[C@@H](CC(C)C)C(=O)O; NMeA = CN[C@@H](C)C(=O)O; Piperidide = C1CCN(*)CC1; Ac5c = NC1(C(=O)O)CCCC1; Aze = O=C(O)[C@@H]1CCN1; Sar = CNCC(=O)O

How the values were obtained:
[1] = Inhibition of biotin-tagged KRAS G12D mutant (unknown origin) to recombinant His-tagged SOS1 (unknown origin) protein-protein interaction incubated for 120 mins by AlphaLISA method; design: species or system Homo sapiens
[2] = target: GTPase KRas (Homo sapiens, UniProt P01116, G12D); assay: Binding affinity to biotinylated KRAS G12D mutant (unknown origin) incubated for 120 mins by SPR analysis
[3] = test system: ASPC1; assay: Cytotoxicity against human AsPC1 cells assessed as reduction in cell viability incubated for 7 days by CellTiterGlo Luminescent Cell Viability Assay; format: functional, cell-based; details: ASPC1, 168 h
[4] = Apparent permeability in human Caco-2 cells incubated for 180 mins by LC-MS/MS method; format: ADME, cell-based
[5] = Half-life in BALB/c nude mouse at 1 mg/kg, iv measured upto 24 hrs by LC-MS/MS analysis; format: ADME, organism-based; details: in vivo
[6] = Half-life in BALB/c nude mouse at 20 mg/kg, po measured upto 24 hrs by LC-MS/MS analysis; format: ADME, organism-based; details: in vivo
[7] = Half-life in Wistar Hannover rat at 1 mg/kg, iv measured upto 24 hrs by LC-MS/MS analysis; format: ADME, organism-based; details: in vivo, iv, 1 mg/kg, 24 h
[8] = Half-life in Wistar Hannover rat at 10 mg/kg, po measured upto 48 hrs by LC-MS/MS analysis; format: ADME, organism-based; details: in vivo
[9] = Half-life in Cynomolgus monkey at 0.168 mg/kg, iv measured upto 24 hrs by LC-MS/MS analysis; format: ADME, organism-based, Macaca fascicularis; details: in vivo
[10] = Half-life in Cynomolgus monkey at 10 mg/kg, po measured upto 48 hrs by LC-MS/MS analysis; format: ADME, organism-based, Macaca fascicularis; details: in vivo
[11] = AUCinfinity in BALB/c nude mouse at 1 mg/kg, iv measured upto 24 hrs by LC-MS/MS analysis; format: ADME, organism-based; details: in vivo, iv, 1 mg/kg, 24 h
[12] = AUCinfinity in BALB/c nude mouse at 20 mg/kg, po measured upto 24 hrs by LC-MS/MS analysis; format: ADME, organism-based; details: in vivo, po, 20 mg/kg, 24 h
[13] = AUCinfinity in Wistar Hannover rat at 1 mg/kg, iv measured upto 24 hrs by LC-MS/MS analysis; format: ADME, organism-based; details: in vivo
[14] = AUCinfinity in Wistar Hannover rat at 10 mg/kg, po measured upto 48 hrs by LC-MS/MS analysis; format: ADME, organism-based; details: in vivo
[15] = AUCinfinity in Cynomolgus monkey at 0.168 mg/kg, iv measured upto 24 hrs by LC-MS/MS analysis; format: ADME, organism-based, Macaca fascicularis; details: in vivo
[16] = AUCinfinity in Cynomolgus monkey at 10 mg/kg, po measured upto 48 hrs by LC-MS/MS analysis; format: ADME, organism-based, Macaca fascicularis; details: in vivo
[17] = Clearance in BALB/c nude mouse at 1 mg/kg, iv measured upto 24 hrs by LC-MS/MS analysis; format: ADME, organism-based; details: in vivo
[18] = Clearance in Cynomolgus monkey at 0.168 mg/kg, iv measured upto 24 hrs by LC-MS/MS analysis; format: ADME, organism-based, Macaca fascicularis; details: in vivo
[19] = Volume of distribution at steady state in BALB/c nude mouse at 1 mg/kg, iv measured upto 24 hrs by LC-MS/MS analysis; format: ADME, organism-based; details: in vivo, read-out: Vdss
[20] = Volume of distribution at steady state in Wistar Hannover rat at 1 mg/kg, iv measured upto 24 hrs by LC-MS/MS analysis; format: ADME, organism-based; details: in vivo, iv, 1 mg/kg, 24 h
[21] = Volume of distribution at steady state in Cynomolgus monkey at 0.168 mg/kg, iv measured upto 24 hrs by LC-MS/MS analysis; format: ADME, organism-based, Macaca fascicularis; details: in vivo, read-out: Vdss
[22] = Oral bioavailability in BALB/c nude mouse at 20 mg/kg measured upto 24 hrs by LC-MS/MS analysis; format: ADME, organism-based; details: in vivo, po, 20 mg/kg, 24 h
[23] = Oral bioavailability in Wistar Hannover rat at 10 mg/kg measured upto 48 hrs by LC-MS/MS analysis; format: ADME, organism-based; details: in vivo
[24] = Oral bioavailability in Cynomolgus monkey at 10 mg/kg measured upto 24 hrs by LC-MS/MS analysis; format: ADME, organism-based, Macaca fascicularis; details: in vivo
[25] = Metabolic stability in human liver microsomes assessed as intrinsic clearance per mg protein at 0.2 uM measured upto 30 mins by LC-MS/MS analysis; format: ADME, Microsome; details: read-out: CLH
[26] = Metabolic stability in mouse liver microsomes assessed as intrinsic clearance per mg protein at 0.2 uM measured upto 30 mins by LC-MS/MS analysis; format: ADME, Microsome; details: read-out: CLH
[27] = Metabolic stability in rat liver microsomes assessed as intrinsic clearance per mg protein at 0.2 uM measured upto 30 mins by LC-MS/MS analysis; format: ADME, Microsome; details: read-out: CLH
[28] = Metabolic stability in monkey liver microsomes assessed as intrinsic clearance per mg protein at 0.2 uM measured upto 30 mins by LC-MS/MS analysis; format: ADME, Macaca mulatta, Microsome; details: rhesus monkey, read-out: CLH

Sequence of GTPase KRas (P01116 whole entry G12D): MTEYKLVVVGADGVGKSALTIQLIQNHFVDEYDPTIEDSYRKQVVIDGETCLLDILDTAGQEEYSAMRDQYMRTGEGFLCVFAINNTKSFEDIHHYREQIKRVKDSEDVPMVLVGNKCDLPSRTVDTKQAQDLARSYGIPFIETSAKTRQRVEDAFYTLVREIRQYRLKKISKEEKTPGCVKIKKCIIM

Question: For CC[C@H](C)[C@@H]1NC(=O)[C@H](CC(C)C)N(C)C(=O)C[C@@H](C(=O)N2CCCCC2)N(C)C(=O)[C@H](C2CCCC2)N(C)C(=O)C2(CCCC2)NC(=O)[C@@H]2CCCN2C(=O)[C@H](CCc2ccc(C(F)(F)F)c(Cl)c2)NC(=O)CN(C)C(=O)[C@H](CC2CCCCC2)N(C)C(=O)[C@@H]2CCN2C(=O)[C@H](C)N(C)C1=O ([NMeL]I[NMeA][Aze][NMeCha][Sar][hPhe(3-Cl-4-CF3)]P[Ac5c][NMeGly(cPent)][NMeD]-Piperidide; lactam N-11), which IC50 [1] is on record?
Answer: < 2 nM

Question: What about the Kd [2] of the same compound?
Answer: 0.47 nM

Question: And the IC50 [3]?
Answer: 18 nM

Question: And the Papp at 3 h [4]?
Answer: 0.61 ×10⁻⁶ cm/s

Question: And the half-life [5]?
Answer: 8.62 h

Question: What about the half-life [6] of the same compound?
Answer: 6.46 h

Question: And the t1/2 [7]?
Answer: 6.23 h

Question: What about the half-life [8] of the same compound?
Answer: 3.95 h

Question: What about the half-life [9] of the same compound?
Answer: 7.3 h

Question: What about the half-life [10] of the same compound?
Answer: 8.65 h

Question: What about the AUC [11] of the same compound?
Answer: 2860 ng·h/mL

Question: And the AUC [12]?
Answer: 3270 ng·h/mL

Question: What about the AUC(0-inf) [13] of the same compound?
Answer: 7970 ng·h/mL

Question: What about the AUC(0-inf) [14] of the same compound?
Answer: 5770 ng·h/mL

Question: And the AUC(0-inf) [15]?
Answer: 1590 ng·h/mL

Question: And the AUC(0-inf) [16]?
Answer: 10700 ng·h/mL

Question: And the clearance [17]?
Answer: 5.9 mL/min/kg

Question: And the clearance [18]?
Answer: 1.81 mL/min/kg

Question: And the Vd [19]?
Answer: 0.85 L/kg

Question: And the Vdss [20]?
Answer: 2.6 L/kg

Question: And the Vd [21]?
Answer: 0.49 L/kg

Question: What about the F [22] of the same compound?
Answer: 16%

Question: What about the bioavailability [23] of the same compound?
Answer: 5.7%

Question: What about the bioavailability [24] of the same compound?
Answer: 11%

Question: What about the microsomal CLint at 0.2 µM [25] of the same compound?
Answer: 18 µL/min/mg

Question: What about the microsomal CLint at 0.2 µM [26] of the same compound?
Answer: 24 µL/min/mg

Question: And the microsomal CLint at 0.2 µM [27]?
Answer: 28 µL/min/mg

Question: And the microsomal CLint at 0.2 µM [28]?
Answer: 32 µL/min/mg
